Series [1] concerns CYPs. The settings on record: earlier pharmacokinetic studies; cited from earlier work.
The conditions of series [2]: earlier pharmacokinetic studies; cited from earlier work.
A short description of series [3]: PAMPA-BBB assay. The settings on record: in-house conditions; 17 h, 200 μM, 25 °C, triplicate. (The PAMPA barrier holds no transporters, so it reflects passive diffusion.)

As to `CNCCCc1cncc(CCc2cc(C)cc(N)n2)c1` [Compound 6], the CYPs inhibition entry in series [1] is recorded as “very poor”. The human microsome metabolism entry in series [2] is “little”.
As for `CNCc1cccc(-c2cncc(CCc3cc(C)cc(N)n3)c2)c1` [Compound 16, 4-Methyl-6-(2-(5-(3-((methylamino)methyl)phenyl)pyridin-3-yl)ethyl)pyridin-2-amine], the “Determined Pe” value in series [3] is on record as 5.56 10^−6 cm s^−1.
In the case of `CNCc1cccc(-c2cc(F)cc(CCc3cc(C)cc(N)n3)c2)c1` [Compound 18, 6-(2-(5-Fluoro-3′-((methylamino)methyl)-[1,1′-biphenyl]-3-yl)ethyl)-4-methylpyridin-2-amine], the “Determined Pe” value in series [3] is on record as 17.41 10^−6 cm s^−1.
The same measure, in the same setting: with `CNCCCN1c2ccccc2CCc2ccccc21` [Desipramine] the figure was 20.52 ± 0.64 10^−6 cm s^−1.
On to `Cn1c(=O)c2[nH]cnc2n(C)c1=O.O` [Theophylline], for which, in series [3], the “Determined Pe” value was 0.15 ± 0.04 10^−6 cm s^−1.

The record behind these values is paper PMC5699933 (Journal of medicinal chemistry, 2017).
